In patent publication US5707815A, “Mammalian monocyte chemoattractant protein receptors and assays using them” (Regents of the University of California, priority 1995, dated 1998):

Columns and labels:
[1] = tested on: MCP-1 receptor; test: Total inositol phosphate accumulation in MCP-1 receptor transfected 293 cells; format: cell-based, human; conditions: 293 cells stably expressing recombinant MCP-1 receptor
Method: Inositol (1,4,5)-triphosphate (IP3) mobilizes intracellular calcium in response to activation of a wide spectrum of receptors, including many seven-transmembrane-domain receptors. Hung, J. Ceil. Biol. 116:827-32 (1992); Putney, Trends Endocrinol. Metab. 5:256-60 (1994). To investigate this mobilization, total inositol phosphate accumulation was determined as described in Hung, J. Cell Biol. 116:827-32 (1992). HEK-293 cells were grown until confluent in 24-well tissue culture dishes and labeled overnight with 2 uCi/ml [^3 H]myo-inositol (23 Ci/mmol) (New England Nuclear, Boston, Mass.) in inositol-free MEM-EBSS supplemented with 10% dialyzed FCS. Following labeling, the media were removed and the cells were incubated at room temperature for 5-10 min in 0.5 ml of serum-free MEM-EBSS media supplemented with 10 mM HEPES, 1 mg/ml BSA, and 10 mM LiCl. […] The incubation was terminated by removal of the incubation media and addition of 1 ml of ice-cold 20 mM formic acid. Plates were incubated at 4° C. for 30 min before the supernatants were applied to 1-ml Dowex AG1-X8 (100-200 mesh, formate form, from Sigma) chromatography columns. Columns were washed with 8 ml of water followed by 5 ml of 40 mM sodium formate. Total [^3 H]inositol phosphates were eluted with 5 ml of 2M ammonium formate/0.1M formic acid and quantitated by liquid scintillation spectroscopy. […]

[2] = tested on: untransfected or pcDNA3 transfected 293 cell controls; test: cAMP formation in untransfected or pcDNA3 transfected 293 cell controls; format: cell-based, human; conditions: cells without receptor

## monocyte chemoattractant protein-1 [MCP-1]
[1]
  hydrolysis of PI (phosphatidylinositol): little, if any
[2]
  effect on cAMP formation: neither stimulated nor inhibited
